Consider 16 compounds from ChEMBL document CHEMBL4219203, “Design, synthesis and biological evaluation of seco-A-pentacyclic triterpenoids-3,4-lactone as potent non-nucleoside HBV inhibitors” (Bioorg Med Chem Lett, 2018).

Data set [1] concerns Hepatitis B virus. Description: Antiviral activity against Hepatitis B virus infected in human HepG2.215 cells assessed as inhibition of HBsAg secretion after 3 days by ELISA. It is filed as functional, organism-based. The following applies: HepG2.2.15, 72 h.
The test system of data set [2] is Hepatitis B virus. The data set is described as follows: Antiviral activity against Hepatitis B virus infected in human HepG2.215 cells assessed as inhibition of HBeAg secretion after 3 days by ELISA. It is filed as functional, organism-based. The following applies: HepG2.2.15, 72 h.
Data set [3] can be described thus: Cytotoxicity against human HepG2.215 cells assessed as reduction in cell viability after 3 days by MTT assay. It is filed as cell-based, HepG2 2.2.15. The following applies: HepG2.2.15 cells.
Data set [4] in a line: Selectivity index, ratio of CC50 for human HepG2.215 cells to IC50 for Hepatitis B virus infected in human HepG2.215 cells assessed as inhibition of HBsAg secretion. It is filed as toxicity, cell-based. The following applies: HepG2.2.15 cells (Hepatitis B virus infected), read-out: Ratio CC50/IC50.
Data set [5] is described as follows: Selectivity index, ratio of CC50 for human HepG2.215 cells to IC50 for Hepatitis B virus infected in human HepG2.215 cells assessed as inhibition of HBeAg secretion. It is filed as toxicity, cell-based. Conditions: HepG2.2.15 cells (Hepatitis B virus infected), read-out: Ratio CC50/IC50.
Data set [6] concerns Hepatitis B virus. Description: Antiviral activity against Hepatitis B virus infected in human HepG2.215 cells assessed as reduction in cellular viral DNA level at 25 uM after 9 days by real time QF-PCR analysis relative to control. It is filed as functional. The following applies: for inhibition at 25 µM: HepG2.2.15, 216 h.
The nature of data set [7]: Selectivity index, ratio of CC50 for human HepG2.215 cells to IC50 for Hepatitis B virus infected in human HepG2.215 cells assessed as reduction in covalently closed circular DNA level. The format is toxicity, cell-based. The following applies: HepG2.2.15 cells (Hepatitis B virus infected), read-out: Ratio CC50/IC50.
Data set [8] concerns Hepatitis B virus. Description: Antiviral activity against Hepatitis B virus infected in human HepG2.215 cells assessed as reduction in covalently closed circular DNA level after 9 days by real time QF-PCR analysis. It is filed as functional, organism-based. Conditions: HepG2.2.15, 216 h.
Data set [9] relates to Hepatitis B virus. The data set is described as follows: Antiviral activity against Hepatitis B virus infected in human HepG2.215 cells assessed as inhibition of HBeAg secretion by measuring FITC-labeled monoclonal mouse HBeAg antibody non-labeled cells level at 6.25 uM after 3 days by flow cytometry (reference value: 0.5%). It is filed as functional. Conditions: HepG2.2.15, 72 h.

Data set [10] concerns Hepatitis B virus. Description: Antiviral activity against Hepatitis B virus infected in human HepG2.215 cells assessed as inhibition of HBeAg secretion by measuring FITC-labeled monoclonal mouse HBeAg antibody non-labeled cells level at 12.5 uM after 3 days by flow cytometry (reference value: 0.5%). It is filed as functional. Conditions: HepG2.2.15, 72 h.
The subject of data set [11] is Hepatitis B virus. Description: Antiviral activity against Hepatitis B virus infected in human HepG2.215 cells assessed as inhibition of HBeAg secretion by measuring FITC-labeled monoclonal mouse HBeAg antibody non-labeled cells level at 25 uM after 3 days by flow cytometry (reference value: 0.5%). The format is functional. The following applies: HepG2.2.15, 72 h.

Calls of active or inactive are those of the source. The calls are words filed in the database; no cut-off is given here.

With `CC1(C)CC[C@@]23CC[C@]4(C)[C@@](OC2=O)([C@@H]3C1)[C@@H](O)C[C@@H]1[C@@](C)(CCC(=O)O)[C@H](C(C)(C)O)CC[C@]14C`, the results for the 50% inhibitory concentration (IC50) in the data set with Hepatitis B virus [1] and with Hepatitis B virus [2] were 340 µM and 112 µM, respectively. Further, the half-maximal cytotoxic concentration (CC50) at 72 h in [3] was 452 µM. Besides, the selectivity ratio came to 1.32 in [4] and 4.04 in data set [5]. In the data set on Hepatitis B virus [6], the inhibition entry was “Active”.
For the compound `CC1(C)CC[C@@]23CC[C@]4(C)[C@@](OC2=O)([C@@H]3C1)[C@@H](O)C[C@@H]1[C@@]2(C)CCC(=O)OC(C)(C)[C@@H]2CC[C@]14C`, the IC50 is 286 µM with Hepatitis B virus [1] and 149 µM in the data set with Hepatitis B virus [2]. Also, the half-maximal cytotoxic concentration (CC50) at 72 h in [3] was 540 µM. Besides, the values for the selectivity ratio in data set [4] and in data set [5] were 1.57 and 3.03, respectively. Besides, the inhibition result in the data set with Hepatitis B virus [6] was “Active”.
For `CC(C)(O)[C@@H]1CC[C@]2(C)[C@H](C(=O)C=C3[C@@H]4C[C@@](C)(C(=O)O)CC[C@]4(C)CC[C@]32C)[C@@]1(C)CCC(=O)O`, the half-maximal inhibitory concentration (IC50) was determined as 259 µM in the data set with Hepatitis B virus [1], 257 µM with Hepatitis B virus [2] and 12.3 µM in the data set with Hepatitis B virus [8]. The half-maximal cytotoxic concentration (CC50) at 72 h in data set [3] stood at 2040 µM. In addition, the selectivity ratio amounted to 7.87 in data set [4], 7.95 in data set [5] and 166 in data set [7]. In the data set on Hepatitis B virus [6], the inhibition at 25 µM amounted to 91.4%.
Consider `CC1(C)OC(=O)CC[C@]2(C)[C@H]3C(=O)C=C4[C@@H]5C[C@@](C)(C(=O)O)CC[C@]5(C)CC[C@@]4(C)[C@]3(C)CC[C@@H]12`, for which the results for the IC50 in the data set with Hepatitis B virus [1] and in the data set on Hepatitis B virus [2] were 171 µM and 81.9 µM, respectively. Moreover, in [3], the 50% cytotoxic concentration (CC50) at 72 h was 546 µM. In addition, the figures for the selectivity ratio in data set [4] and in data set [5] were 3.2 and 6.67, respectively. Moreover, the inhibition result with Hepatitis B virus [6] was “Active”.
As to `C[C@H]1[C@H](C)CC[C@]2(C(=O)O)CC[C@]3(C)C(=CC[C@@H]4[C@@]5(C)CC[C@H](O)C(C)(C)[C@@H]5CC[C@]43C)[C@H]12` [URSOLIC ACID], the IC50 with Hepatitis B virus [1] is 1360 µM; in the data set on Hepatitis B virus [2], 897 µM. In data set [3], the cytotoxic concentration (CC50) at 72 h was found to be 1540 µM. Besides, the selectivity ratio in data set [4] turned out to be 1.13; in data set [5] it was 1.72.
With `CC1(C)CC[C@]2(C(=O)O)CC[C@]3(C)C(=CC[C@@H]4[C@@]5(C)CCC(=O)OC(C)(C)[C@@H]5CC[C@]43C)[C@@H]2C1`, the concentration for half-maximal inhibition (IC50) was found to be 360 µM in the data set with Hepatitis B virus [1], 0.86 µM with Hepatitis B virus [2] and 32.7 µM in the data set with Hepatitis B virus [8]. Further, the CC50 at 72 h in [3] amounted to 477 µM. Further, the values for the selectivity ratio in data set [4], in data set [5] and in data set [7] were 1.32, over 200 and 14.5, respectively. Moreover, the inhibition at 6.25 µM in the data set with Hepatitis B virus [9] came out at 6.2%. The inhibition at 12.5 µM in the data set with Hepatitis B virus [10] came to 10.6%. Also, the inhibition at 25 µM in the data set with Hepatitis B virus [11] was 34%; in the data set on Hepatitis B virus [6], 81.6%.
Regarding `C[C@H]1[C@H](C)CC[C@]2(C(=O)O)CC[C@]3(C)C(=CC[C@@H]4[C@@]5(C)CCC(=O)OC(C)(C)[C@@H]5CC[C@]43C)[C@H]12`, the half-inhibitory concentration (IC50) in the data set on Hepatitis B virus [1] amounted to 284 µM; in the data set on Hepatitis B virus [2] it was 176 µM. For the same compound, the CC50 at 72 h in data set [3] was 406 µM. The values for the selectivity ratio in data set [4] and in data set [5] were 1.43 and 2.3, respectively.
In the case of `C[C@H]1OC(=O)CC[C@@H]2[C@]1(C)CC[C@H]1[C@@]2(C)CC[C@@]2(C)[C@@H]3CC(C)(C)CC[C@]3(C)CC[C@]12C` [FRIEDELIN-3,4-LACTONE], the IC50 with Hepatitis B virus [1] amounted to 765 µM; in the data set with Hepatitis B virus [2], 790 µM. The CC50 at 72 h in data set [3] is 482 µM. Further, the selectivity ratio in data set [4] is 0.63; in data set [5], 0.61.
With `C[C@H]1C(=O)CC[C@@H]2[C@]1(C)CC[C@H]1[C@@]2(C)CC[C@@]2(C)[C@@H]3CC(C)(C)CC[C@]3(C)CC[C@]12C` [FRIEDELINE], the IC50 stood at 1210 µM in the data set with Hepatitis B virus [1] and 1250 µM in the data set on Hepatitis B virus [2]. In [3], the CC50 at 72 h was found to be 1790 µM. Also, the selectivity ratio in data set [4] was 1.48; in data set [5] it was 1.43.
As for `Nc1ccn([C@H]2CS[C@@H](CO)O2)c(=O)n1`, the IC50 in the data set on Hepatitis B virus [1] amounted to 917 µM; with Hepatitis B virus [2], 1440 µM. For the same compound, the CC50 at 72 h in data set [3] amounted to 876 µM. In the data set with Hepatitis B virus [6], the inhibition at 25 µM was 92.8%.
As for `C[C@H]1[C@H](C)CC[C@]2(C(=O)O)CC[C@]3(C)C(=CC[C@@H]4[C@@](C)(CCC(=O)O)[C@H](C(C)(C)O)CC[C@]43C)[C@H]12`, the half-maximal inhibitory concentration (IC50) in the data set on Hepatitis B virus [1] amounted to 406 µM; with Hepatitis B virus [2], 384 µM. In addition, in [3], the CC50 at 72 h is 461 µM. Also, the selectivity ratio in data set [4] came to 1.13; in data set [5], 1.2.
As for `CC1(C)CC[C@]2(C(=O)O)CC[C@]3(C)C(Br)(CC[C@@H]4[C@@]5(C)CCC(=O)C(C)(C)[C@@H]5CC[C@]43C)[C@@H]2C1` (some centres not stated), the figures for the half-maximal inhibitory concentration (IC50) with Hepatitis B virus [1] and in the data set with Hepatitis B virus [2] were 883 µM and 925 µM, respectively. Further, the cytotoxic concentration (CC50) at 72 h in data set [3] was found to be 100 µM. Besides, the selectivity ratio was 0.11 in [4] and 0.1 in [5].
Consider `CC1(C)[C@@H](O)CC[C@]2(C)[C@H]3C(=O)C=C4[C@@H]5C[C@@](C)(C(=O)O)CC[C@]5(C)CC[C@@]4(C)[C@]3(C)CC[C@@H]12` [ENOXOLONE], for which the IC50 turned out to be 510 µM with Hepatitis B virus [1] and 806 µM in the data set on Hepatitis B virus [2]. Besides, the CC50 at 72 h in [3] was 650 µM. Besides, the selectivity ratio in data set [4] stood at 1.27; in data set [5], 0.81.
With `CC1(C)CC[C@]2(C(=O)O)CC[C@]3(C)C(Br)(CC[C@@H]4[C@@]5(C)CCC(=O)OC(C)(C)[C@@H]5CC[C@]43C)[C@@H]2C1` (some centres not stated), the 50% inhibitory concentration (IC50) turned out to be 305 µM with Hepatitis B virus [1] and 92.3 µM in the data set with Hepatitis B virus [2]. Also, the CC50 at 72 h in [3] turned out to be 485 µM. The selectivity ratio in data set [4] amounted to 1.59; in data set [5] it was 5.21.
On to `CC1(C)CC[C@]2(C(=O)O)CC[C@]3(C)C(=CC(=O)[C@@H]4[C@@]5(C)CCC(=O)OC(C)(C)[C@@H]5CC[C@]43C)[C@@H]2C1`, for which the IC50 came to 321 µM in the data set with Hepatitis B virus [1], 0.14 µM in the data set with Hepatitis B virus [2] and 33.5 µM in the data set on Hepatitis B virus [8]. Further, the CC50 at 72 h in data set [3] is 583 µM. Besides, the selectivity ratio in [4] was 1.81; in data set [5], over 200; in data set [7] it was 17.4. The inhibition at 6.25 µM with Hepatitis B virus [9] was found to be 7.7%. The inhibition at 12.5 µM in the data set on Hepatitis B virus [10] worked out at 7.8%. Further, the values for the inhibition at 25 µM with Hepatitis B virus [11] and with Hepatitis B virus [6] were 33.5% and 82.6%, respectively.
For the compound `CC1(C)CC[C@]2(C(=O)O)CC[C@]3(C)C(=CC[C@@H]4[C@@]5(C)CC[C@H](O)C(C)(C)[C@@H]5CC[C@]43C)[C@@H]2C1` [OLEANOLIC_ACID], the IC50 is 1360 µM with Hepatitis B virus [1] and 814 µM with Hepatitis B virus [2]. Further, in [3], the half-maximal cytotoxic concentration (CC50) at 72 h stood at 731 µM. In addition, the selectivity ratio in [4] stood at 0.53; in data set [5], 0.9.
